Data as given in patent US8592421B2, “Cyclic bioisosters of purine system derivatives and a pharmaceutical composition based thereon” (priority 2003, dated 2013).

Key:
[1] = Chronic toxicity of suppositories: biochemical indexes of blood serum; type: in vivo, rats; details: male rats, suppositories, 1 month; for Cholesterol in blood serum: control 3.02 ± 0.08; for Urea in blood serum: control 8.44 ± 0.60; for Glucose in blood serum: control 9.76 ± 0.15; for ALT in blood serum: control 11.33 ± 1.96; for AST in blood serum: control 19.13 ± 1.02; for Bilirubin in blood serum: control 35.93 ± 2.19; for Creatinine in blood serum: control 40.23 ± 2.84; for Alkalinous phosphatase in blood serum: control 40.74 ± 1.57; for Total protein in blood serum: control 94.89 ± 6.67;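 on all read-outs here: inbred rats dosed rectally with softened suppositories, controls given matching volumes of sterile medical liquid paraffin, serum sampled one month into a two-month dosing course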
Protocol: Two doses of preparations used in the experiments: 50 mg/kg and 500 mg/kg. Before the administration, the suppositories were softened by heating in a glass water bath at a temperature of 38-39° C., the soft mass was collected in tuberculin syringe in a volume of 1 ml, a needle with oliva was attached to the syringe, and the preparatory mass was introduced into the rectum of the animal for a depth of 1.5-2.0 cm. The animals of the control group were administered with sterile medical liquid paraffin in a volume corresponding to the volume of the investigated suppository. A complete course of administration of drugs to the animals was two months. A complex of laboratory diagnostic investigations was carried out one month after the beginning of the administration of the preparation to the animal—in a middle of the course (8 animals), two months after ending the course (8 animals) and three months after ending the recovery period of one month (8 animals). The mass of the body of the rats in the first month of administration of the preparation was determined weekly, and then once in two weeks. On the basis of the dynamics of an index of the mass of the animal body, the volume of preparation being administered was corrected taking into account the test dose.

[2] = Morphine abstinence model: thymus condition (mass, nitrites); type: in vivo, rats; details: for Nitrites in thymus supernatant: control 0.331 ± 0.041; for Thymus mass: control 230 ± 14
In short: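 Rats morphinized, then dosed with compound, alongside control and morphinized-only groups; thymus assessed by mass and nitrites. Deproteinized samples treated with Aspergillus nitrate reductase (0.2 unit/ml, 5.0 mkM FAD, 0.1 mM NADPH, HEPES pH 7.4, 30 min 37° C.), then Griess absorbance at 540 nm against sodium nitrate standard.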

thrombocytes = assay: ADP-induced aggregation of thrombocytes after intravenous administration (in vivo); set-up: species or system rabbit
Protocol: The experiments were carried out on male rabbits of the “Chinchilla” breed having a mass of 2.7±0.3 kg. 18-24 hours prior to the experiment they were deprived of feed while preserving free access to water.
To obtain plasma enriched with thrombocytes, blood was taken from a cut of a marginal vein of the rabbit ear, the sample was stabilized with 3.8% of sodium citrate solution in a ratio of 9:1 and centrifuged at 200 g (1000 rev/min) for 10 minutes. The top supernatant layer enriched with thrombocytes was transferred by an automatic dropper into a silicone test tube and kept at 37° C. The plasma enriched with thrombocytes contained, on the average, […]. If this content exceeded the specified 3×10^8 blood platelets in 1 liter, this sample was diluted to the necessary concentration with plasma deprived of thrombocytes, which was obtained by centrifuging blood at 650 g during 10 minutes.
The measurements of the optical density of the samples were made on two-channel aggregometer of the “Chronolog” Company (USA). A flask containing 490 mkl of plasma rich with thrombocytes was placed in a device, into which a magnetic agitator covered with Teflon was lowered. The index of maximum amplitude of aggregation (MA) in percent of a fall of the plasma optical density under effect of the aggregation inductor was recorded. The control index MA of plasma was compared with the MA of plasma incubated for 3 minutes with different concentrations of the compounds: from 10^−3 to 10^−7 in vitro experiments or with plasma obtained 15, 30, 60 and 120 minutes after intravenous administration of different doses of the compounds in vivo experiments.
The process of aggregation of thrombocytes was recorded with the help of a computer; on the monitor screen the there were depicted curves reflecting changes of the optical density of the plasma enriched which was taken as a standard 100% compared to the optical density of the non-thrombocyte plasma taken for 0% content of thrombocytes.
The antiaggregative capability of compounds 2, 15, 21, 37, according to the invention was tested in experiments in vivo. Introduced to the test animals intravenously were an aggregation inductor ADP at a concentration of 10^−5 M was and then the compounds according to the invention. The doses of the compounds were in a range from 15 to 60 mg/kg.
For leveling the different effects of the compounds in different days due the ambient temperature, humidity and other parameters, 2 animals of each series were taken for experiments every day. Under “series” there is understood a group of 6 animals used for studying one of the doses of the compounds.
The blood for obtaining plasma enriched with thrombocytes was taken from marginal vein of the rabbit ear: in the control group—directly before introducing the tested compounds; in investigated groups—15 minutes after introducing these compounds and then after 30, 60, 120 minutes and so on up to the moment when the effect of suppression of aggregation disappeared.
The quantity of thrombocytes was counted before the experiment and at the end thereof in each plasma sample.

[3] = Chronic toxicity of suppositories: indexes of urine; type: in vivo, rats; details: rats, suppositories rectal, 1 month after administration
Protocol: The experiments were conducted on inbred rats.

[4] = Administration of morphine and compound

## Nc1cccc2c(=O)[nH][nH]c(=O)c12.[Na] [Compound 15, sodium salt of 5-amino-benzo[d]-3H-pyridazine-1,4-dione]
[1]; 50 mg/kg
  Cholesterol in blood serum: 2.01 ± 0.50 mmol/L
  Urea in blood serum: 10.33 ± 0.51 Mkmol/l
  Glucose in blood serum: 10 ± 0.41 mM
  ALT in blood serum: 7.63 ± 1.95 unit/l
  AST in blood serum: 19.49 ± 2.90 unit/1
  Bilirubin in blood serum: 43.07 ± 3.57 mmol/L
  Creatinine in blood serum: 45.59 ± 2.68 mkmol/l
  Alkalinous phosphatase in blood serum: 40.74 ± 6.78 unit/l
  Total protein in blood serum: 90.22 ± 6.78 g/L
[1]; 500 mg/kg
  Cholesterol in blood serum: 2.30 ± 0.57 mmol/L
  Urea in blood serum: 10.89 ± 0.73 Mkmol/l
  Glucose in blood serum: 10.7 ± 0.41 mM
  ALT in blood serum: 9.48 ± 1.85 unit/l
  AST in blood serum: 15.14 ± 1.58 unit/1
  Bilirubin in blood serum: 40.69 ± 15.75 mmol/L
  Creatinine in blood serum: 48.27 ± 12.29 mkmol/l
  Alkalinous phosphatase in blood serum: 41.60 ± 2.26 unit/l
  Total protein in blood serum: 71.56 ± 8.23 g/L
[2]; Administration of compounds
  Nitrites in thymus supernatant: 0.407 ± 0.02 nmol/mg of protein
  Thymus mass: 298 ± 25 mg
[2]; [4]
  Nitrites in thymus supernatant: 0.383 ± 0.02 nmol/mg of protein
  Thymus mass: 214 ± 12 mg
thrombocytes; 15.0 mg/kg intravenously, after 15 minutes, control 50.1 ± 1.7
  MA - drop of optical density: 42.8 ± 1.8 %
thrombocytes; 15.0 mg/kg intravenously, after 30 minutes, control 50.1 ± 1.7
  MA - drop of optical density: 41.8 ± 1.5 %
thrombocytes; 15.0 mg/kg intravenously, after 60 minutes, control 50.1 ± 1.7
  MA - drop of optical density: 45.6 ± 1.5 %
thrombocytes; 15.0 mg/kg intravenously, after 120 minutes, control 50.1 ± 1.7
  MA - drop of optical density: 48.3 ± 2.3 %
thrombocytes; 30.0 mg/kg intravenously, after 15 minutes, control 61.0 ± 1.3
  MA - drop of optical density: 43.2 ± 2.2 %
thrombocytes; 30.0 mg/kg intravenously, after 30 minutes, control 61.0 ± 1.3
  MA - drop of optical density: 41.8 ± 1.9 %
thrombocytes; 30.0 mg/kg intravenously, after 60 minutes, control 61.0 ± 1.3
  MA - drop of optical density: 37.8 ± 1.8 %
thrombocytes; 30.0 mg/kg intravenously, after 120 minutes, control 61.0 ± 1.3
  MA - drop of optical density: 58.1 ± 1.7%
thrombocytes; 60.0 mg/kg intravenously, after 15 minutes, control 48.6 ± 1.3
  MA - drop of optical density: 43.1 ± 1.5 %
thrombocytes; 60.0 mg/kg intravenously, after 30 minutes, control 48.6 ± 1.3
  MA - drop of optical density: 41.3 ± 1.5 %
thrombocytes; 60.0 mg/kg intravenously, after 60 minutes, control 48.6 ± 1.3
  MA - drop of optical density: 44.7 ± 0.8%
thrombocytes; 60.0 mg/kg intravenously, after 120 minutes, control 48.6 ± 1.3
  MA - drop of optical density: 47.2 ± 1.6%
[3]; dose 50 mg/kg
  Bilirubin (urine): <5 Mkmol/l
  Glucose (urine): <6 mmol/L
  Ketone bodies (urine): <1 mmol/L
  Potassium (urine): 5.28 ± 1.5 g/L
  Protein (urine): 0.71 ± 0.274 g/L
  Sodium (urine): 1.2 ± 0.4 g/L
  Urea (urine): 413 ± 128 mmol/L
  Urobilinogen (urine): <17 Mkmol/l
  pH (urine): 6.3 ± 0.4
[3]; dose 500 mg/kg
  Bilirubin (urine): <5 Mkmol/l
  Glucose (urine): <6 mmol/L
  Ketone bodies (urine): <1 mmol/L
  Potassium (urine): 6.13 ± 1.6 g/L
  Protein (urine): 0.87 ± 0.24 g/L
  Sodium (urine): 0.64 ± 0.4 g/L
  Urea (urine): 485 ± 131 mmol/L
  Urobilinogen (urine): <17 Mkmol/l
  pH (urine): 6.2 ± 0.3
